According to patent US20090075972A1, “Use of Midostaurin for Treating Gastrointestinal Stromal Tumors” (priority 2004, published 2009):
Read-outs that look alike come from different tables or passages of the source.

What was measured:
KITInsAY502-503/V654A = KITInsAY502-503/V654A (Homo sapiens, UniProt P10721, INS503AY/V654A); settings: KITIns503AY/V654A cells
Description: (§1) Western-blot: Snap-frozen tumor specimens sufficient for preparation of cell lysates were available from ten refractory GISTs. Cell lysis, SDS-PAGE and immunoblotting were carried out as described.^21 Membranes (Amnersham Pharmacia Biotechnology, UK) were immunoblotted overnight using anti-phospho-KIT (Y703) (Zymed, San Francisco, Calif.) antibody at dilution of 1:500. The HRP-conjugated anti-rabbit IgG was used at a dilution of 1:2500 and visualized with Enhanced Chemiluminescence (Pierce). Membranes were then stripped and re-blotted to determine total protein levels using an antibody recognizing total KIT protein (anti-CD117, A4502, DAKO, Glostrup, Denmark).
(§2) Experiments are performed with serial dilutions of the 10 mM stock. Controls are performed with solvent (DMSO) dilutions. Primary cells are obtained from collagenase disaggregated progressive tumor specimens, seeded at 60-70% confluence in 100-mm cell culture dishes (Corning Inc., Corning, N.Y.) and grown for three days in DMEM supplemented with 10% fetal bovine serum, 0.1 mM nonessential amino acids, and 1.0 mM sodium pyruvate.
(§3) The results are compared with GIST882 cells, which carry a hemizygous KIT K642E mutation. Observations are standardized for total KIT expression using anti-KIT antibody.

KITΔ557-558/T670I [1] = molecular target: T1, KITΔ557-558/T670I (Homo sapiens, UniProt P10721, DEL557-558/T670I); settings: 90 min, KITΔ557-558/T670I cells
Description: as §1, §2, §3

KITΔ557-558/T670I [2] = molecular target: T1, KITΔ557-558/T670I; settings: Ba/F3 cells
Description: (§4) Construct: Mutant PDGFRA and KIT cDNA are obtained by RT-PCR on RNA isolated from progressive tumors. The cDNA's are cloned into the retroviral vector pMSCV-puro (Clontech).
(§5) Cell culture: 293T cells are grown in DMEM supplemented with 10% FCS. Ba/F3 cells are grown in RPMI-1640 supplemented with 10% FCS and interleukin-3 (1 ng/ml). Virus as produced as described previously, see e.g. Cools J. et al., N Engl J Med 2003; 348:1201-1214.
(§6) .Ba/F3 cells transduced with the different constructs are selected with puromycin (2 μg/ml). To test for factor independent growth, Ba/F3 cells are washed 3 times in PBS and new cultures are initiated in the absence of interleukin-3. Cells that became independent on interleukin-3, are maintained in the absence of interleukin-3. For dose-response curves, Ba/F3 cells are grown in 24-well plates with different concentrations of inhibitor. The number of viable cells is determined at the start and after 24 hrs, using the AqueousOne solution (Promega).
(§7) Ba/F3 cells are IL3 dependent for their growth, but become IL3 independent upon the expression of many activated kinases, such as FIP1 L1-PDGFRA and BCR-ABL. […] The PDGFRA ΔDIM842-844 mutant serve as a control in this experiment.

PDGFRA D842V = molecular target: T2, PDGFRA D842V (Homo sapiens, UniProt P16234, D842V); assay: Dose response curves of Ba/F3 cells expressing mutant kinase (viable cells after 24 hrs); assay type: cell-based
T2 construct: expressed in transfected cells; host or cells: Ba/F3 murine cells, retroviral transduction with pMSCV-puro
Description: as §4, §5, §6, §7

PDGFRA ΔDIM842-844 = molecular target: T3, PDGFRA ΔDIM842-844 (Homo sapiens, UniProt P16234, DEL842-844); assay: as above; assay type: cell-based
T3 construct: expressed in transfected cells; host or cells: Ba/F3 murine cells, retroviral transduction with pMSCV-puro
Description: as §4, §5, §6, §7

[3] = human trials; cited from earlier work
[4] = test system: T674 I mutant form of FIPL1-PDGFRA; settings: refractory CEL patients; Cools J. et al., Cancer Cell 2003; cited from earlier work
GISTs = settings: one reported study; cited from earlier work

Row | Compound | KIT autophosphorylation (KITInsAY502-503/V654A; 0.5 μM, 90 min) | KIT autophosphorylation (KITInsAY502-503/V654A; ten-fold higher concentration than 0.5 μM) | KIT autophosphorylation (KITΔ557-558/T670I [1]; 0.5 μM) | KIT autophosphorylation (KITΔ557-558/T670I [1]; 1 μM) | concentration at which mutant is inhibited (KITΔ557-558/T670I [2]) | inhibition of PDGFRA D842V mutant (PDGFRA D842V; 1 μM) | concentration at which mutant is inhibited (PDGFRA D842V; PDGFRA D842V) | concentration at which mutant is inhibited (PDGFRA ΔDIM842-844) | Maximum Tolerated Dose (MTD), total dose [3] [mg/day] | inhibitory activity against imatinib-resistant T674I FIPL1-PDGFRA [4] | patients with primary resistance to imatinib (GISTs) [%]
1 | CO[C@@H]1[C@H](N(C)C(=O)c2ccccc2)C[C@H]2O[C@]1(C)n1c3ccccc3c3c4c(c5c6ccccc6n2c5c31)C(=O)NC4 [PKC412, N-[(9S,10R,11R,13R)-2,3,10,11,12,13-hexahydro-10-methoxy-9-methyl-1-oxo-9,13-epoxy-1H,9H-diindolo[1,2,3-gh:3′,2′,1′-lm]pyrrolo[3,4-j][1,7]benzodiazonin-11-yl]-N-methylbenzamide] | reduced | completely inhibited | reduced | totally inhibit | below 1 μM | efficiently inhibits | below 1 μM | below 1 μM | ~225 | full inhibitory activity | –
2 | Cc1ccc(NC(=O)c2ccc(CN3CCN(C)CC3)cc2)cc1Nc1nccc(-c2cccnc2)n1 [imatinib] | – | – | – | – | – | – | – | – | – | – | 13.7
